# Measured values published in paper PMC9138505, “Small Molecule 20S Proteasome Enhancer Regulates MYC Protein Stability and Exhibits Antitumor Activity in Multiple Myeloma” (Biomedicines, 2022).
# Key:
# [1] = test system: RPMI-8226 subcutaneous xenograft; assay: RPMI-8226 xenograft tumor model; conditions: after 42 days; TCH-165 100 mg/kg bid oral; bortezomib 0.375 reduced to 0.09 mg/kg i.v. 3X per week
# [2] = test system: primary cells from a BTZ refractory MM patient; assay: Primary cell viability, CellTiter-Glo, 72 h; conditions: Homo sapiens
# Text: (§1) White blood cells (WBCs) were separated from red blood cells by the Ficoll density gradient. Multiple myeloma cells were then isolated from WBCs using human CD138 affinity magnetic beads (Miltenyi Biotec; cat#130-093-062; Gaithersburg, MD, USA) following the manufacturer’s protocol. Cells were cryopreserved in 10% DMSO in FBS. Revived cells were maintained in an RPMI medium with 10% FBS for 10 days prior to treatment. […] Cells were equilibrated to RT and CellTiter-Glo (Promega; Madison, WI, USA) solution (100 μL) was added and incubated with shaking for 10 min at RT. The assay plate was then allowed to equilibrate for 5 min at RT and luminescent readings were taken on a SpectraMax® M5. Data are presented as a percentage of the vehicle control for each experimental condition, after background subtraction. Error bars represent SD for triplicate wells.
# [3] = test system: primary human MM cells of newly diagnosed patient; assay: Primary cell viability, CellTiter-Glo, 72 h
# Text: as §1
compound,measurement,setting,value
"CC(C)C[C@H](NC(=O)[C@H](Cc1ccccc1)NC(=O)c1cnccn1)B(O)O [bortezomib, reference compound]",average tumor volume,[1],771.41 (±129.35) mm^3
same,CC50,[2],> 1000 nM
same,CC50,[3],4 nM
